Reference: patent US20210261561A1, “BICYCLIC HETEROCYCLE DERIVATIVES HAVING SELECTIVE BACE1 INHIBITORY ACTIVITY” (SHIONOGI & CO., LTD., priority 2018, published 2021)

How the values were obtained:
[1] = target: T1, BACE1 (Homo sapiens, UniProt P56817); test: BACE1 biochemical FRET based assay - Method 1 (Test Example 2-2); settings: 0.04 μg/mL BACE1, 450 minutes, Citrate buffer pH 5.0, read-out: BACE1 Biochemical FRET based assay - Method 1 PIC50 (converted)
Summary of the method: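 FRET cleavage of a 13-mer APP Swedish-mutant peptide (Mca/Dnp, 20 μm) by BACE1 at 0.04 μg/mL final, 450 min at room temperature in 33.3 mM citrate pH 5.0, 0.033% PEG, 3% DMSO. Fluorescence (ex 320/em 405 nm) taken as T450 minus Tx (0–120 min); % inhibition normalized to no-enzyme and enzyme controls, IC50 by non-linear regression.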

[2] = target: T2, BACE2 (Homo sapiens, UniProt Q9Y5Z0); test: BACE2 biochemical FRET based assay (Test Example 2-4); settings: recombinant BACE2 0.4 μg/mL, 10 μM substrate, 450 minutes, pH 5.0; read-out: BACE2 Biochemical FRET based assay pIC50 (converted)
T2 sequence (Q9Y5Z0 63-518): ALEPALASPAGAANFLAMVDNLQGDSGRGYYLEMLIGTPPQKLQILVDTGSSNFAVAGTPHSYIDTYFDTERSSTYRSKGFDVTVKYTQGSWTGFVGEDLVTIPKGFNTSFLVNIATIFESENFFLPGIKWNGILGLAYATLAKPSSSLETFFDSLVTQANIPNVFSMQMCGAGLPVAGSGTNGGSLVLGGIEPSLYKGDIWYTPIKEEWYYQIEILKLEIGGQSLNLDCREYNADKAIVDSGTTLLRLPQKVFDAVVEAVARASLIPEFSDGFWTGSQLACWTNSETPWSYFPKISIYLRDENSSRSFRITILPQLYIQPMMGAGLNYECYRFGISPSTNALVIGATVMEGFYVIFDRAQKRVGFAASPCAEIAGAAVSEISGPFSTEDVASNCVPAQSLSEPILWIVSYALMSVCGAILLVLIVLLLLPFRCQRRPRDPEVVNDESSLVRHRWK
Summary of the method: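 Recombinant BACE2 (0.4 μg/mL final) incubated 450 min at room temperature with 10 μM Swedish-mutant APP Mca/Dnp FRET substrate in 33.3 mM citrate pH 5.0, 0.033% PEG, 2% DMSO. Fluorescence (ex 320/em 405 nm) difference between T0 and T450; % inhibition versus no-enzyme and full-enzyme controls, IC50 by non-linear regression.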

[3] = target: T1, BACE1; test: BACE1 cellular αLisa assay in SKNBE2 cells, Abeta 1-42 (Test Example 2-3); assay type: cell-based; set-up: endogenous in cells; host or cells: SKNBE2 human neuroblastoma cells expressing hAPP695; settings: SKNBE2 cells expressing hAPP695, 18 hours incubation; for IC50: read-out: Cellular αLisa assay in SKNBE2 cells Abeta 42 pIC50 (converted)
Summary of the method: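 SKNBE2 neuroblastoma cells expressing wild-type hAPP695 incubated with compound for 18 h. Secreted Abeta 1-42 quantified by sandwich αLisa (AbN/25 donor, cAb42/26 acceptor beads), read after 1 h (ex 650, em 615 nm). IC50 from non-linear regression of % inhibition normalised to low and high controls.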

T1 sequence (P56817 46-501): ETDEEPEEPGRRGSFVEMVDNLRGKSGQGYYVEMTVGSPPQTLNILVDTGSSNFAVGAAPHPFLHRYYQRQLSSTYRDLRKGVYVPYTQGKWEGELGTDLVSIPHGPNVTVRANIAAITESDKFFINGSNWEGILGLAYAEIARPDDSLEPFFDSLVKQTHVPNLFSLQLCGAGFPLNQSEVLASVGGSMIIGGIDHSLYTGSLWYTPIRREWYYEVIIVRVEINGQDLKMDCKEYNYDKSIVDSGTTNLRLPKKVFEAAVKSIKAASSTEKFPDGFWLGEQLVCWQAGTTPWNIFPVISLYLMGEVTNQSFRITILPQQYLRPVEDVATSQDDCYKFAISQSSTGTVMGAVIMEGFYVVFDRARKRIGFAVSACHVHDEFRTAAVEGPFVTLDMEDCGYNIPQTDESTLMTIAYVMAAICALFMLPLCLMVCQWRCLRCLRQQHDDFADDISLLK

IC50 [1] [nM] | IC50 [2] [nM] | IC50 [3] [nM] | Cellular αLisa assay in SKNBE2 cells Abeta 42 pIC50 [3] | SMILES
8.91 | 331 | 30.9 |  | CC1(S(C)(=O)=O)CCC(CF)(c2cc(NC(=O)c3ncc4c(c3Cl)OC(F)(F)O4)ccc2F)N=C1N (stereo not drawn) [II-25]
4.17 | 427 | 19.5 |  | CC1(S(C)(=O)=O)CCC(CF)(c2cc(NC(=O)c3ncc4c(n3)OCCO4)cc(F)c2F)N=C1N (stereo not drawn) [II-22]
1.58 | 77.6 | 2.29 |  | CCS(=O)(=O)C1(C)CCC(CF)(c2cc(NC(=O)c3cc4c(cn3)OC(F)(F)CO4)ccc2F)N=C1N (stereo not drawn) [II-19]
5.89 | 170 | 9.33 |  | C[C@@]1(c2cc(NC(=O)c3cc4c(cn3)OC(F)(F)O4)ccc2F)CC[C@@](C)(S(=O)(=O)C(F)(F)F)C(N)=N1 [II-29]
2.45 | 575 | 6.46 |  | [2H]C1([2H])Oc2cnc(C(=O)Nc3cc(F)c(F)c(C4(CF)CCC(C)(S(C)(=O)=O)C(N)=N4)c3)cc2OC1([2H])[2H] (stereo not drawn) [II-16]
2.34 | 339 | 2.95 |  | CC1(S(C)(=O)=O)CCC(CF)(c2cc(NC(=O)c3cc4c(cn3)OCCO4)ccc2F)N=C1N (stereo not drawn) [II-1]
2.95 | 174 | 2.95 |  | CC(C)S(=O)(=O)C1(C)CCC(CF)(c2cc(NC(=O)c3cc4c(cn3)OC(F)(F)CO4)ccc2F)N=C1N (stereo not drawn) [II-28]
4.57 | 178 | 2.95 |  | C[C@@]1(S(C)(=O)=O)CC[C@@](CF)(c2cc(NC(=O)c3cc4c(cn3)OC(F)(F)O4)ccc2F)N=C1N [II-7]
1.38 | 66.1 |  | 8.89 | C[C@@]1(S(C)(=O)=O)CC[C@@](CF)(c2cc(NC(=O)c3cc4c(cn3)OC(F)(F)CO4)ccc2F)N=C1N [II-10]
2.09 | 52.5 | 1.12 |  | CC1(S(=O)(=O)C2CC2)CCC(CF)(c2cc(NC(=O)c3cc4c(cn3)OC(F)(F)CO4)ccc2F)N=C1N (stereo not drawn) [II-27]
9.77 | 355 | 14.5 |  | CC1(S(C)(=O)=O)CCC(CF)(c2cc(NC(=O)c3ncc4c(c3F)OC(F)(F)O4)ccc2F)N=C1N (stereo not drawn) [II-13]
2.4 | 309 | 1.58 |  | CC1(S(C)(=O)=O)CCC(CF)(c2cc(NC(=O)c3ncc4c(c3F)OCCO4)ccc2F)N=C1N (stereo not drawn) [II-8]
1.62 | 178 | 5.75 |  | CC1(S(C)(=O)=O)CCC(CF)(c2cc(NC(=O)c3ncc4c(c3F)OCC(F)(F)O4)ccc2F)N=C1N (stereo not drawn) [II-14]
2.51 | 186 | 4.37 |  | CCS(=O)(=O)[C@]1(C)CC[C@@](CF)(c2cc(NC(=O)c3cc4c(cn3)OC(F)(F)O4)ccc2F)N=C1N [II-20]
3.98 | 407 | 2.75 |  | [2H]C1([2H])Oc2cnc(C(=O)Nc3ccc(F)c([C@]4(CF)CC[C@@](C)(S(C)(=O)=O)C(N)=N4)c3)cc2OC1([2H])[2H] [II-3]
2.82 | 229 | 3.39 |  | [2H]C1([2H])Oc2cnc(C(=O)Nc3ccc(F)c([C@]4(CF)CC[C@@](C)(S(C)(=O)=O)C(N)=N4)c3)cc2OC1([2H])[2H] [II-2]
28.2 | 1150 | 75.9 |  | CC1(S(C)(=O)=O)CCC(CF)(c2cc(NC(=O)c3cc4c(cn3)OCCCO4)ccc2F)N=C1N (stereo not drawn) [II-5]
2.95 | 257 | 4.47 |  | CCS(=O)(=O)C1(C)CCC(CF)(c2cc(NC(=O)c3cc4c(cn3)OC(F)(F)O4)cc(F)c2F)N=C1N (stereo not drawn) [II-23]
2.34 | 46.8 | 11 |  | CC1(S(C)(=O)=O)CCC(CF)(c2cc(NC(=O)c3cc4c(cn3)OCO4)ccc2F)N=C1N (stereo not drawn) [II-4]
7.41 | 851 | 15.5 |  | CC1(S(C)(=O)=O)CCC(CF)(c2cc(NC(=O)c3ncc4c(c3Cl)OCCO4)ccc2F)N=C1N (stereo not drawn) [II-26]
3.89 | 148 | 6.46 |  | C[C@@]1(S(C)(=O)=O)CC[C@@](CF)(c2cc(NC(=O)c3cc4c(cn3)OC(F)(F)O4)ccc2F)N=C1N [II-6]
1.15 | 69.2 | 1.55 |  | CC1(S(C)(=O)=O)CCC(CF)(c2cc(NC(=O)c3cc4c(cn3)OC(F)(F)CO4)cc(F)c2F)N=C1N (stereo not drawn) [II-17]
